# Laboratory results taken from US20210220450A1, “TREATMENT OF AN IOP CONDITION” (The Research Foundation for The State University of New York, priority 2013, published 2021).
# Legend:
# [1] = test system: sheep of the Coriedale breed; assay: Steroid-induced IOP elevation in sheep, tPA injected into the anterior chamber (Example 9); type: in vivo; settings: amount of arginine associated with 0.01 ug tPA, injected alone
# Method: Methods. Lyophilized tPA, obtained as Acetilyse® from Boehringer Ingelheim S. A. (Buenos Aires) containing arginine, was used. Five sheep of the Coriedale breed were selected. Initially all eyes received instillation of 1% prednisolone 3 times/day for 10 days to elevate their IOP from 10 mm Hg to about 23 mm Hg. Then, 0.0001 μg was injected into one of the eyes and its effect was followed for up to 55:00 hrs while the instillation of prednisolone continued in both eyes. The same protocol was implemented for the 0.001 and 0.01 μg amounts (after extended washout) in the contra lateral eyes. Arginine, which is associated with 0.01 ug tPA, was injected alone and had no effect.
# [2] = test system: sheep of the Corriedale breed; assay: Steroid-induced IOP elevation in sheep, intravitreal tPA (Examples 3, 4); type: in vivo
# Method: Protocol 1. 8 sheep of the Corriedale breed were treated with prednisolone acetate three times a day in both eyes, leading to elevated IOP. After one week, the animals received intravitreal injections of human recombinant tPA (100, 200, 500 and 1000 μg, two animals each) dissolved in balanced salt solution (BSS) in one eye. IOP was monitored for 19 more days while the animals continued to receive treatment with prednisolone. Periodic slit lamp examination was also performed.
# Protocol 2. In a second set of experiments, arginine was added to the BSS vehicle administered to the left eye to control for the relatively high concentration of the amino acid in the commercially available tPA lyophilisate. In these experiments all right eyes received 0.1 mg tPA, which concomitantly delivered 4.23 mg of arginine into the vitreous, and the left eye received this same amount of arginine, absent the tPA. On Day 1, prednisolone treatments were also begun simultaneously on both eyes.
# Methods. In this experiment, the inventor sought to detect the effects of tPA treatment on prevention of steroid-induced IOP elevation. In 4 sheep tPA was injected in one eye (100 μg) and they were started on prednisolone acetate three times a day in both eyes. Animals were monitored for 11 days on continuous treatment.
# [3] = test system: Mmp-2, Mmp-9, Mmp-13; assay: Mmp expression in Tg-MYOCY437H angle ring tissue (Example 19); type: in vivo, mouse; settings: 5 days, vs BSA treated eyes
# Method: Eyes were flash frozen in liquid nitrogen after outflow facility determination and subsequently dissected on ice to obtain the angle ring tissues containing the TM, as previously described (Kumar, Shah et al. 2013). Dissected TM tissues were immersed in RNAlater solution (Invitrogen, Waltham, Mass., USA) and then snap-frozen and stored at −80° C. until RNA extraction. Tissue collected was pooled (four eyes) and homogenized in TRIzol reagent for RNA isolation, per manufacturer's instructions (Life Technologies, Carlsbad, Calif., USA). RNA concentration was determined with a Nanodrop ND-1000 Spectrophotometer (Thermo Scientific, Wilmington, Del., USA). cDNA was synthesized by using High-Capacity cDNA Reverse Transcription Kit (Applied Biosystems, Waltham, Mass., USA) according to manufacturer's protocol. Quantitative real-time PCR (qRT-PCR) was performed by using Green-2-Go qPCR Mastermix-ROX (Bio Basic, Amherst, N.Y., USA) on a QuantStudio 6 Flex thermal cycler (Applied Biosystems, Carlsbad, Calif., USA). mRNA expression of Plat, Plau, Pai-1, Mmp-2, Mmp-9, and Mmp-13 in angle ring tissues was determined. Primers were designed by using Primer-BLAST (https://www.ncbi.nlm.nih.gov/tools/primer-blast/index.cgi?LINK_LOC=BlastHome; in the public domain); primer sequences are listed in Table 2. Primer specificity was confirmed by agarose gel electrophoresis and multiple-sized amplification products were absent on inspection of melting curves. Target mRNA expression values were normalized to the expression levels of Rps11 (ribosomal protein S11). The relative fold change was calculated by using the ΔΔCt method (Hu, Wang et al. 2015). Outliers identified via the Thompson Tau test were removed from analysis.
# [4] = test system: MMP-2, MMP-9, MMP-13; assay: MMP expression in PA treated HTM cells (Examples 17, 18); type: cell-based
# [5] = test system: C57/1B6 mice; assay: Outflow facility in TA-treated mice injected intracamerally with AdPLAT (Example 1); type: in vivo
# Method: Methods: Adenoviral vectors carrying cDNA of the sheep PLAT gene and a fluorescent reporter gene (mCherry) (AdPLAT) or with no transgene (AdNull) were created. Transgene expression was driven by the CMV promoter. 3 groups of C57/1B6 mice received either: (1) 20 μl of triamcinolone acetonide (TA) suspension (40 mg/ml) subconjunctivally bilaterally followed immediately by unilateral intracameral injection with 2 μl AdPLAT (3-4×10^12 VG/ml); (2) 20 μl TA subconjunctivally bilaterally followed one week later by unilateral intracameral injection with 2 μl AdPLAT; or (3) 20 μl TA subconjunctivally bilaterally followed immediately by bilateral injection with 2 μl adenovirus AdNull. IOP was measured preterminally. Outflow facility was determined using simultaneous pressure and flow measurements (see FIGS. 2A-2C). After outflow facility measurement, all AdPLAT injected eyes were dissected and viewed under a fluorescent microscope to inspect for mCherry expression in the trabecular meshwork (TM).
# [6] = test system: C57BL/6J mice; assay: Outflow facility in TA and adenovirus treated C57BL/6J mouse eyes (Example 12); type: in vivo; settings: TA exposed eyes vs naïve C57BL/6J
# Method: Steroid, adenoviral and protein injections. Intracameral adenovirus and intravitreal protein injections were performed using a 10 μl Hamilton syringe with 36-gauge stainless steel needles (WPI Inc, Sarasota, Fla., USA) while subconjunctival injections were performed using a 100 μl Hamilton Syringe with 26-gauge needles (Precision Glide, Becton Dickinson & CO, Franklin Lakes, N.J., USA). All injections were performed under isoflurane inhalation anesthesia and topical anesthesia with 0.5% proparacaine. C57BL/6J mice undergoing adenovirus treatment received bilateral injections with 20 μl of triamcinolone acetonide (TA) suspension (40 mg/ml, Kenalog-40; Bristol-Myers Squibb, NY, USA) subconjunctivally immediately prior to the intracameral adenovirus injection. Animals were then divided into three groups (FIG. 10a): […]
# Outflow facility determination: Mouse eyes were enucleated immediately after euthanasia. Outflow facility was determined using a constant pressure method, as previously described. […] Flow was constantly measured via a microfluidic flow sensor (0.07-1.5 uL/min, MFS1; Elveflow, Paris, France). […] Any eyes that developed visible leaks during outflow facility determination, or that had pressure-flow correlations with R^2<0.9, were excluded from analysis but were used for RNA quantification.
# [7] = test system: HTM cells; assay: Simulated outflow facility of HTM cells in artificial conventional outflow system (ACOS) (Examples 17, 18); type: cell-based; settings: PA treatment
# Method: HTM cells were treated with 300 nM prednisolone acetate (PA) for 72 h to reduce outflow facility. They were then treated with either tissue plasminogen activator (tPA), non-enzymatically active tPA (NE-tPA) or bovine serum albumin (BSA) and perfused in artificial conventional outflow system (ACOS). Simulated outflow facilities (mean±standard deviation) (μl/min/mmHg/mm^2) was 2.4±0.6×10-1 for PA, 3±1.2×10-1 for PA+BSA, 7±1.2×10-1 for PA+tPA and 5.4±0.9×10-1 for PA+NE-tPA (p<0.0001, ANOVA).
# HTM cells were treated with PA+NE-tPA and inhibitors of either LRP1 (RAP) or NMDA receptor (MK-801) and were perfused in ACOS. Simulated outflow facility (meant standard deviation μl/min/mmHg/mm^2) was 5.5±0.7×10-1 for PA+NE-tPA, 2.9±1.3×10-1 for PA+NE-tPA+MK-801, 2.7±1.2×10-1 for PA+NE-tPA+RAP and 3.3±1.3×10-1 for PA+NE-tPA+MK-801+RAP.
# [8] = test system: PLAT; assay: PLAT mRNA in HTM cells after prednisolone (Example 8); type: cell-based; settings: HTM cells from two donors; as early as 1 hour after prednisolone
# Text: FIG. 8. Relative fold difference of PLAT mRNA from 18S mRNA amounts in HTM cells treated with prednisolone acetate (PA treated) or vehicle (Control) for […].
# [9] = added to PA+NE-tPA, vs PA+NE-tPA treated cells
smiles,measurement,setting,value
"N=C(N)NCCC[C@H](N)C(=O)O [arginine, reference compound]",effect of arginine alone on IOP,[1],had no effect
same,effect of arginine alone on steroid-increased IOP,"[2]; 4.23 mg arginine intravitreal, prednisolone",does not alter
same,effect of arginine alone on outflow facility,[2]; eye receiving arginine plus prednisolone (OS),failed to reduce
"O=C([O-])CCCc1ccccc1.[Na+] [PBA, sodium phenylbutarate, reference compound]",Mmp-2 expression,[3],no significant difference
same,Mmp-9 expression,[3],higher
same,Mmp-13 expression,[3],did not show any difference
"C[C@]12N[C@H](Cc3ccccc31)c1ccccc12 [MK-801, reference compound]",MMP-2 expression,[4]; [9],significantly lower
same,MMP-9 expression,[4]; [9],significantly lower
"CC1(C)O[C@@H]2C[C@H]3[C@@H]4CCC5=CC(=O)C=C[C@]5(C)[C@@]4(F)[C@@H](O)C[C@]3(C)[C@]2(C(=O)CO)O1 [TA, triamcinolone acetonide]","outflow facility, mean±SD","[5]; TA only eyes, two weeks of TA, n=24",0.0067±0.0028 μl/min/mmHg
same,"outflow facility, mean±SD","[5]; contralateral eyes injected with TA alone, concurrent experiment, n=22",0.0060±0.0025 μl/min/mmHg
same,reduction in outflow facility from baseline,[6],~46%
"CC(=O)OCC(=O)[C@@]1(O)CC[C@H]2[C@@H]3CCC4=CC(=O)C=C[C@]4(C)[C@H]3[C@@H](O)C[C@@]21C [prednisolone, prednisolone acetate, reference compound]",MMP-13 mRNA,[4]; PA treated HTM cells,below detectable limits
same,reduction in outflow facility compared to baseline,[7],~73%
same,PLAT expression,[8],downregulation
same,mean (±SD) IOP,"[2]; prednisolone for 10 days, baseline 10.2 (±1.1) mmHg",24.1(±1.6) mmHg
